From the NIST ThermoML archive (doi:10.1007/s10765-010-0768-y)
Numbers after ± are expanded uncertainties.

How the values were obtained:
[1] = 101 kPa, Liquid, Pycnometric method
[2] = xn = mol fraction of the nth substance listed; details: 101 kPa, Liquid, Pycnometric method, x2 = 0

SMILES | mass density ([1]; 288.15 K) [kg/m3] | mass density ([1]; 293.15 K) [kg/m3] | mass density ([1]; 298.15 K) [kg/m3] | mass density ([1]; 303.15 K) [kg/m3] | mass density ([1]; 308.15 K) [kg/m3] | mass density ([1]; 313.15 K) [kg/m3] | mass density ([1]; 318.15 K) [kg/m3] | mass density ([2]; 288.15 K) [kg/m3] | mass density ([2]; 293.15 K) [kg/m3] | mass density ([2]; 298.15 K) [kg/m3] | mass density ([2]; 303.15 K) [kg/m3] | mass density ([2]; 308.15 K) [kg/m3] | mass density ([2]; 313.15 K) [kg/m3] | mass density ([2]; 318.15 K) [kg/m3]
Cc1ccccc1C [1,2-dimethylbenzene] | 884.09 ± 0.22 | 879.83 ± 0.21 | 875.57 ± 0.22 | 871.31 ± 0.23 | 867.05 ± 0.24 | 862.79 ± 0.25 | 858.53 ± 0.26 | – | – | – | – | – | – | –
Cc1ccccc1C [1,2-dimethylbenzene] + C=CC(=O)OCCCC | – | – | – | – | – | – | – | 884.09 ± 0.22 | 879.83 ± 0.21 | 875.57 ± 0.22 | 871.31 ± 0.23 | 867.05 ± 0.24 | 862.79 ± 0.25 | 858.53 ± 0.26
Cc1cc(C)cc(C)c1 [1,3,5-trimethylbenzene] | 869.28 ± 0.24 | 865.37 ± 0.23 | 861.45 ± 0.24 | 857.54 ± 0.25 | 853.63 ± 0.26 | 849.71 ± 0.27 | 845.8 ± 0.28 | – | – | – | – | – | – | –
Cc1cc(C)cc(C)c1 [1,3,5-trimethylbenzene] + C=CC(=O)OCCCC | – | – | – | – | – | – | – | 869.28 ± 0.24 | 865.37 ± 0.23 | 861.45 ± 0.24 | 857.54 ± 0.25 | 853.63 ± 0.26 | 849.71 ± 0.27 | 845.8 ± 0.28
Cc1cccc(C)c1 [1,3-dimethylbenzene] | 868.59 ± 0.22 | 864.31 ± 0.21 | 860.02 ± 0.22 | 855.74 ± 0.23 | 851.45 ± 0.24 | 847.17 ± 0.25 | 842.88 ± 0.26 | – | – | – | – | – | – | –
Cc1cccc(C)c1 [1,3-dimethylbenzene] + C=CC(=O)OCCCC | – | – | – | – | – | – | – | 868.59 ± 0.22 | 864.31 ± 0.21 | 860.02 ± 0.22 | 855.74 ± 0.23 | 851.45 ± 0.24 | 847.17 ± 0.25 | 842.88 ± 0.26
Cc1ccc(C)cc1 [1,4-dimethylbenzene] | 865.52 ± 0.22 | 861.17 ± 0.2 | 856.82 ± 0.21 | 852.47 ± 0.22 | 848.12 ± 0.23 | 843.77 ± 0.24 | 839.42 ± 0.25 | – | – | – | – | – | – | –
Cc1ccc(C)cc1 [1,4-dimethylbenzene] + C=CC(=O)OCCCC | – | – | – | – | – | – | – | 865.52 ± 0.22 | 861.17 ± 0.2 | 856.82 ± 0.21 | 852.47 ± 0.22 | 848.12 ± 0.23 | 843.77 ± 0.24 | 839.42 ± 0.25
c1ccccc1 [benzene] | 884.3 ± 0.22 | 878.95 ± 0.2 | 873.61 ± 0.21 | 868.26 ± 0.22 | 862.9 ± 0.23 | 857.56 ± 0.24 | 852.23 ± 0.25 | – | – | – | – | – | – | –
c1ccccc1 [benzene] + C=CC(=O)OCCCC | – | – | – | – | – | – | – | 884.3 ± 0.22 | 878.95 ± 0.2 | 873.61 ± 0.21 | 868.26 ± 0.22 | 862.9 ± 0.23 | 857.56 ± 0.24 | 852.23 ± 0.25
C=CC(=O)OCCCC [butyl 2-propenoate] | 903.6 ± 0.27 | 898.85 ± 0.26 | 894.1 ± 0.27 | 889.35 ± 0.28 | 884.6 ± 0.29 | 879.85 ± 0.3 | 875.1 ± 0.31 | – | – | – | – | – | – | –
Cc1ccccc1 [toluene] | 871.79 ± 0.21 | 867.08 ± 0.2 | 862.36 ± 0.21 | 857.64 ± 0.22 | 852.93 ± 0.23 | 848.21 ± 0.24 | 843.49 ± 0.25 | – | – | – | – | – | – | –
Cc1ccccc1 [toluene] + C=CC(=O)OCCCC | – | – | – | – | – | – | – | 871.79 ± 0.21 | 867.08 ± 0.2 | 862.36 ± 0.21 | 857.64 ± 0.22 | 852.93 ± 0.23 | 848.21 ± 0.24 | 843.49 ± 0.25
